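GI50 marks 50% less growth. TGI is the concentration that stops growth completely.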
Columns and labels:
Assay in all cases: NCI anticancer screen, dose series, 384-well format
MDA-MB-468 breast = test system: MDA-MB-468 breast
HL-60(TB) leukemia = test system: HL-60(TB) leukemia
RPMI-8226 leukemia = test system: RPMI-8226 leukemia
HT29 colon = test system: HT29 colon
SF-295 CNS = test system: SF-295 CNS
CCRF-CEM leukemia = test system: CCRF-CEM leukemia
LOX IMVI melanoma = test system: LOX IMVI melanoma
SNB-75 CNS = test system: SNB-75 CNS
MDA-MB-231 breast = test system: MDA-MB-231 breast
UO-31 renal = test system: UO-31 renal
SK-MEL-5 melanoma = test system: SK-MEL-5 melanoma
SK-MEL-28 melanoma = test system: SK-MEL-28 melanoma
HCC-2998 colon = test system: HCC-2998 colon
T-47D breast = test system: T-47D breast
HOP-92 NSCLC = test system: HOP-92 NSCLC
SF-268 CNS = test system: SF-268 CNS
786-0 renal = test system: 786-0 renal
SF-539 CNS = test system: SF-539 CNS
IGROV1 ovarian = test system: IGROV1 ovarian
UACC-257 melanoma = test system: UACC-257 melanoma
BT-549 breast = test system: BT-549 breast
SW-620 colon = test system: SW-620 colon
NCI-H226 lung = test system: NCI-H226 lung
HCT-15 colon = test system: HCT-15 colon
OVCAR-5 ovarian = test system: OVCAR-5 ovarian
NCI-H522 lung = test system: NCI-H522 lung
SR leukemia = test system: SR leukemia
CAKI-1 renal = test system: CAKI-1 renal
KM12 colon = test system: KM12 colon
RXF 393 renal = test system: RXF 393 renal
PC-3 prostate = test system: PC-3 prostate
HS 578T breast = test system: HS 578T breast
ACHN renal = test system: ACHN renal
MALME-3M melanoma = test system: MALME-3M melanoma
HCT-116 colon = test system: HCT-116 colon
SN12C renal = test system: SN12C renal
K-562 leukemia = test system: K-562 leukemia
EKVX NSCLC = test system: EKVX NSCLC
COLO 205 colon = test system: COLO 205 colon
NCI-H322M lung = test system: NCI-H322M lung
M14 melanoma = test system: M14 melanoma
SK-MEL-2 melanoma = test system: SK-MEL-2 melanoma
SK-OV-3 ovarian = test system: SK-OV-3 ovarian
A549 NSCLC = test system: A549 NSCLC
NCI/ADR-RES ovarian = test system: NCI/ADR-RES ovarian
NCI-H460 NSCLC = test system: NCI-H460 NSCLC
MCF7 breast = test system: MCF7 breast
DU-145 prostate = test system: DU-145 prostate
SNB-19 CNS = test system: SNB-19 CNS
U251 glioblastoma = test system: U251 glioblastoma
UACC-62 melanoma = test system: UACC-62 melanoma
MOLT-4 leukemia = test system: MOLT-4 leukemia
HOP-62 NSCLC = test system: HOP-62 NSCLC
OVCAR-4 ovarian = test system: OVCAR-4 ovarian
OVCAR-3 ovarian = test system: OVCAR-3 ovarian
A498 renal = test system: A498 renal
MDA-MB-435 melanoma = test system: MDA-MB-435 melanoma
NCI-H23 lung = test system: NCI-H23 lung
TK-10 renal = test system: TK-10 renal

## NCCCCN(Cc1nc2ccccc2[nH]1)[C@H]1CCCc2cccnc21
MDA-MB-468 breast
  GI50: 2.81 µM
  TGI: 8.14 µM
HL-60(TB) leukemia
  GI50: 1.35 µM
  TGI: 2.82 µM
RPMI-8226 leukemia
  GI50: 5.63 µM
  TGI: 19.1 µM
HT29 colon
  GI50: 3.6 µM
  TGI: 13.4 µM
SF-295 CNS
  GI50: 8.81 µM
  TGI: 22.1 µM
CCRF-CEM leukemia
  GI50: 5.43 µM
  TGI: 18.5 µM
LOX IMVI melanoma
  GI50: 9.28 µM
  TGI: 23 µM
SNB-75 CNS
  GI50: 4.2 µM
  TGI: 18.1 µM
MDA-MB-231 breast
  GI50: 4.42 µM
  TGI: 23.6 µM
UO-31 renal
  GI50: 13.4 µM
  TGI: 29.1 µM
SK-MEL-5 melanoma
  GI50: 2.62 µM
  TGI: 15.9 µM
SK-MEL-28 melanoma
  GI50: 11.4 µM
  TGI: 24.3 µM
HCC-2998 colon
  GI50: 4.63 µM
  TGI: 18.4 µM
T-47D breast
  GI50: 12.7 µM
  TGI: 32.1 µM
HOP-92 NSCLC
  GI50: 2.7 µM
  TGI: 13.4 µM
SF-268 CNS
  GI50: 5.51 µM
  TGI: 35.1 µM
786-0 renal
  GI50: 8.34 µM
  TGI: 31.3 µM
SF-539 CNS
  GI50: 9.07 µM
  TGI: 21.3 µM
IGROV1 ovarian
  GI50: 5.7 µM
  TGI: 19.1 µM
UACC-257 melanoma
  GI50: 7.89 µM
  TGI: 20.5 µM
BT-549 breast
  GI50: 7.45 µM
  TGI: 28.5 µM
SW-620 colon
  GI50: 10.4 µM
  TGI: 34.1 µM
NCI-H226 lung
  GI50: 10.4 µM
  TGI: 23.5 µM
HCT-15 colon
  GI50: 13.9 µM
  TGI: 32.2 µM
OVCAR-5 ovarian
  GI50: 5.13 µM
  TGI: 28.2 µM
NCI-H522 lung
  GI50: 2.68 µM
  TGI: 18.6 µM
SR leukemia
  GI50: 1.3 µM
  TGI: 2.59 µM
CAKI-1 renal
  GI50: 7.89 µM
  TGI: 22.5 µM
KM12 colon
  GI50: 6.23 µM
  TGI: 33.8 µM
RXF 393 renal
  GI50: 4.56 µM
  TGI: 21.4 µM
PC-3 prostate
  GI50: 6.25 µM
  TGI: 40.8 µM
HS 578T breast
  GI50: 4.57 µM
  TGI: 18.4 µM
ACHN renal
  GI50: 17.3 µM
  TGI: 35.9 µM
MALME-3M melanoma
  GI50: 11.9 µM
  TGI: 24.3 µM
HCT-116 colon
  GI50: 5.3 µM
  TGI: 20.5 µM
SN12C renal
  GI50: 9.33 µM
  TGI: 52.2 µM
K-562 leukemia
  GI50: 10.2 µM
  TGI: 22.5 µM
EKVX NSCLC
  GI50: 8.83 µM
  TGI: 24.5 µM
COLO 205 colon
  GI50: 2.35 µM
  TGI: 5.73 µM
NCI-H322M lung
  GI50: 4.64 µM
  TGI: 24.6 µM
M14 melanoma
  GI50: 5.75 µM
  TGI: 18.4 µM
SK-MEL-2 melanoma
  GI50: 20.3 µM
  TGI: 34.7 µM
SK-OV-3 ovarian
  GI50: 9.63 µM
  TGI: 40.4 µM
A549 NSCLC
  GI50: 9.68 µM
  TGI: 28.4 µM
NCI/ADR-RES ovarian
  GI50: 16 µM
  TGI: 31.6 µM
NCI-H460 NSCLC
  GI50: 4.47 µM
  TGI: 18.1 µM
MCF7 breast
  GI50: 7.6 µM
  TGI: 25.9 µM
DU-145 prostate
  GI50: 7.23 µM
  TGI: > 100 µM
SNB-19 CNS
  GI50: 18 µM
  TGI: > 100 µM
U251 glioblastoma
  GI50: 6.5 µM
  TGI: 25.9 µM
UACC-62 melanoma
  GI50: 10.1 µM
  TGI: 22.3 µM
MOLT-4 leukemia
  GI50: 1.31 µM
  TGI: 2.84 µM
HOP-62 NSCLC
  GI50: 3.94 µM
  TGI: 19 µM
OVCAR-4 ovarian
  GI50: 4.66 µM
  TGI: 26.2 µM
OVCAR-3 ovarian
  GI50: 2.2 µM
  TGI: 15.9 µM
A498 renal
  GI50: 14.7 µM
  TGI: 44.2 µM
MDA-MB-435 melanoma
  GI50: 7.39 µM
  TGI: 23.3 µM
NCI-H23 lung
  GI50: 4.94 µM
  TGI: 22.9 µM
TK-10 renal
  GI50: 10.6 µM
  TGI: 23.6 µM
